The source made the active and inactive calls. The rule behind the calls is not given here.
Columns and labels:
J774.A1 [1] = test: Inhibition of NF-kappaB signalling pathway in LPS-induced mouse J774.A1 cells assessed as downregulation of p65 phosphorylation by Western blotting analysis; assay type: cell-based
J774.A1 [2] = test: Anti-inflammatory activity in LPS-induced mouse J774.A1 cells assessed as inhibition of TNF-alpha production by ELISA; assay type: functional, cell-based
[3] = Half life in Sprague-Dawley rat at 1 mg/kg,iv administration measured upto 24 hrs by LC-MS/MS analysis; assay type: ADME, organism-based; conditions: in vivo
Mus musculus [4] = test: Antiinflammatory activity against LPS induced acute lung injury C57BL/6 mouse model assessed as reduction in spleen weight at 20 mg/kg,po administrated with compound for 30 mins followed by LPS treatment and measured after 6 hrs; assay type: functional, organism-based; conditions: time 6.5 hrs
[5] = Stability of compound in enzyme free simulated intestinal fluid measured upto 12 hrs; assay type: physicochemical; conditions: simulated gi fluid
[6] = Stability of compound in enzyme free simulated gastric fluid measured upto 12 hrs; assay type: physicochemical; conditions: simulated gi fluid
Mus musculus [7] = test: Antiinflammatory activity against LPS induced acute lung injury C57BL/6 mouse model assessed as reduction in TNF-alpha level in BALF at 20 mg/kg,po administrated with compound for 30 mins followed by LPS treatment and measured after 6 hrs by ELISA; assay type: functional, organism-based; conditions: time 6.5 hrs
Mus musculus [8] = test: Antiinflammatory activity in cecal ligation and puncture induced sepsis C57BL/6 mouse model assessed as reduction in tissue destruction of lung at 20 mg/kg,po administrated with compound for 6 hrs followed by CLP induction and measured after 12 hrs by H and E staining based analysis; assay type: functional, organism-based; conditions: time 18.0 hrs
Mus musculus [9] = test: Antiinflammatory activity in cecal ligation and puncture induced sepsis C57BL/6 mouse model assessed as reduction in IL-6 mRNA level in lung at 20 mg/kg,po administrated with compound for 6 hrs followed by CLP induction and measured after 12 hrs by RT-PCR analysis; assay type: functional, organism-based; conditions: time 18.0 hrs
[10] = Acute toxicity in C57BL/6 mouse assessed as pathological change in kidney at 500 mg/kg,po administration measured upto 11 days by hematoxylin and eosin staining based assay; assay type: organism-based; conditions: in vivo, 264 h, time < 11 day
[11] = Acute toxicity in C57BL/6 mouse assessed as pathological change in lung at 500 mg/kg,po administration measured upto 11 days by hematoxylin and eosin staining based assay; assay type: organism-based; conditions: in vivo, 264 h, time < 11 day
Peritoneal macrophage = test: Antiinflammatory activity in LPS-induced mouse Peritoneal macrophage cells assessed as inhibition of IFN-beta mRNA level at 1.25 to 5 uM by RT-PCR analysis; assay type: functional, cell-based; conditions: dose 1.25-5 µM
[12] = Stability of compound in simulated gastric fluid measured upto 12 hrs; assay type: physicochemical; conditions: simulated gi fluid
[13] = target: T1, Myeloid differentiation primary response protein MyD88 (Homo sapiens, UniProt Q99836); test: Binding affinity to CM5 sensor chip immobilized human MyD88 TIR domain assessed as thermal stabilization at 10 uM incubated for 4 hrs by cellular thermal shift assay
[14] = Cmax in Sprague-Dawley rat at 20 mg/kg,po administration measured upto 24 hrs by LC-MS/MS analysis; assay type: ADME, organism-based; conditions: in vivo
[15] = target: TLR4-MyD88 (Mus musculus) (UniProt Q9QUK6+P22366); test: Inhibition of MYD88/TLR4 protein-protein interaction in LPS-induced mouse J774.A1 cells at 20 uM incubated for 2 hrs by coimmunoprecipitation analysis; assay type: cell-based
[16] = Half life in Sprague-Dawley rat at 20 mg/kg,po administration measured upto 24 hrs by LC-MS/MS analysis; assay type: ADME, organism-based; conditions: in vivo
Mus musculus [17] = test: Antiinflammatory activity in cecal ligation and puncture induced sepsis C57BL/6 mouse model assessed as reduction in cell effusion in BALF at 20 mg/kg,po administrated with compound for 6 hrs followed by CLP induction and measured after 12 hrs; assay type: functional, organism-based; conditions: time 18.0 hrs
Mus musculus [18] = test: Antiinflammatory activity against LPS induced acute lung injury C57BL/6 mouse model assessed as reduction in TNF-alpha level in serum at 20 mg/kg,po administrated with compound for 30 mins followed by LPS treatment and measured after 6 hrs by ELISA; assay type: functional, organism-based; conditions: time 6.5 hrs
Mus musculus [19] = test: Antiinflammatory activity against LPS induced acute lung injury C57BL/6 mouse model assessed as reduction in total cell count in BALF at 20 mg/kg,po administrated with compound for 30 mins followed by LPS treatment and measured after 6 hrs; assay type: functional, organism-based; conditions: time 6.5 hrs
J774.A1 [20] = test: Inhibition of MAPK signalling pathway in LPS stimulated mouse J774.A1 cells assessed as downregulation of p38 phosphorylation by Western blotting analysis; assay type: cell-based
[21] = target: T1, Myeloid differentiation primary response protein MyD88; test: Binding affinity to CM5 sensor chip immobilized human MyD88 DD domain assessed as dissociation constant by SPR analysis
[22] = Oral bioavailability in Sprague-Dawley rat at 20 mg/kg administration measured upto 24 hrs by LC-MS/MS analysis; assay type: ADME, organism-based; conditions: in vivo
Mus musculus [23] = test: Antiinflammatory activity in cecal ligation and puncture induced sepsis C57BL/6 mouse model assessed as reduction in TNF-alpha level in BALF at 20 mg/kg,po administrated with compound for 6 hrs followed by CLP induction and measured after 12 hrs by ELISA; assay type: functional, organism-based; conditions: time 18.0 hrs
Mus musculus [24] = test: Antiinflammatory activity in cecal ligation and puncture induced sepsis C57BL/6 mouse model assessed as reduction in neutrophil infiltration in lung at 20 mg/kg,po administrated with compound for 6 hrs followed by CLP induction and measured after 12 hrs by immunohistochemical staining based analysis; assay type: functional, organism-based; conditions: time 18.0 hrs
[25] = Drug concentration in Sprague-Dawley rat serum at 1 mg/kg,iv administration measured upto 24 hrs by LC-MS/MS analysis; assay type: ADME, organism-based; conditions: read-out: Ct
Mus musculus [26] = test: Antiinflammatory activity in cecal ligation and puncture induced sepsis C57BL/6 mouse model assessed as reduction in TNF-alpha level in serum at 20 mg/kg,po administrated with compound for 6 hrs followed by CLP induction and measured after 12 hrs by ELISA; assay type: functional, organism-based; conditions: time 18.0 hrs
[27] = Stability of compound in simulated intestinal fluid measured upto 12 hrs; assay type: physicochemical; conditions: simulated gi fluid
Mus musculus [28] = test: Antiinflammatory activity in cecal ligation and puncture induced sepsis C57BL/6 mouse model assessed as reduction in IL-6 level in serum at 20 mg/kg,po administrated with compound for 6 hrs followed by CLP induction and measured after 12 hrs by ELISA; assay type: functional, organism-based; conditions: time 18.0 hrs
Mus musculus [29] = test: Antiinflammatory activity against LPS induced acute lung injury C57BL/6 mouse model assessed as reduction in IL-6 level in BALF at 20 mg/kg,po administrated with compound for 30 mins followed by LPS treatment and measured after 6 hrs by ELISA; assay type: functional, organism-based; conditions: time 6.5 hrs
Mus musculus [30] = test: Antiinflammatory activity in cecal ligation and puncture induced sepsis C57BL/6 mouse model assessed as reduction in pulmonary congestion in lung at 20 mg/kg,po administrated with compound for 6 hrs followed by CLP induction and measured after 12 hrs by H and E staining based analysis; assay type: functional, organism-based; conditions: time 18.0 hrs
J774.A1 [31] = test: Anti-inflammatory activity in LPS-induced mouse J774.A1 cells assessed as inhibition of IL-6 production by ELISA; assay type: functional, cell-based
[32] = AUC (0 to infinity) in Sprague-Dawley rat at 20 mg/kg,po administration measured upto 24 hrs by LC-MS/MS analysis; assay type: ADME, organism-based; conditions: in vivo
J774.A1 [33] = test: Inhibition of NF-kappaB signalling pathway in LPS-induced mouse J774.A1 cells assessed as upregulation of IkappaB-alpha expression by Western blotting analysis; assay type: cell-based
[34] = Acute toxicity in C57BL/6 mouse assessed as pathological change in liver at 500 mg/kg,po administration measured upto 11 days by hematoxylin and eosin staining based assay; assay type: organism-based; conditions: in vivo, 264 h, time < 11 day

T1 sequence (Q99836 whole entry, the tested form may be a part): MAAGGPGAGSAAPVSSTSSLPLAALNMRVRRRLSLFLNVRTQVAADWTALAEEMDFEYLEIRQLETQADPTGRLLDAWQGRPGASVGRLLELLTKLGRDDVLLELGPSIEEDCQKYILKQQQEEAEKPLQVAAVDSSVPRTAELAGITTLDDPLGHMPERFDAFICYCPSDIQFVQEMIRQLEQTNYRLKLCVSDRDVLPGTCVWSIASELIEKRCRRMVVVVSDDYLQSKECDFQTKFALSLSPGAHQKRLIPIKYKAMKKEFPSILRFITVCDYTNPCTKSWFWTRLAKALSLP
TLR4-MyD88 (Mus musculus), sequence (P22366 whole entry, looked up): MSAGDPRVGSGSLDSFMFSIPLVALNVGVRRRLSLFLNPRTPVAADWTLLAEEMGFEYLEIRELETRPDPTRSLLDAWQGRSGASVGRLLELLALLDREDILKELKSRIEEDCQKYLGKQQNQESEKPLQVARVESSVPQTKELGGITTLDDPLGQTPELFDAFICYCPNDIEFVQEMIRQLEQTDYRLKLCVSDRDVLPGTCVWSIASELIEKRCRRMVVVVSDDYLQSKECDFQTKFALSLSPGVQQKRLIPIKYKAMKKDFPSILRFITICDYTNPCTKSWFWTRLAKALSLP
TLR4-MyD88 (Mus musculus), sequence (Q9QUK6 whole entry, looked up): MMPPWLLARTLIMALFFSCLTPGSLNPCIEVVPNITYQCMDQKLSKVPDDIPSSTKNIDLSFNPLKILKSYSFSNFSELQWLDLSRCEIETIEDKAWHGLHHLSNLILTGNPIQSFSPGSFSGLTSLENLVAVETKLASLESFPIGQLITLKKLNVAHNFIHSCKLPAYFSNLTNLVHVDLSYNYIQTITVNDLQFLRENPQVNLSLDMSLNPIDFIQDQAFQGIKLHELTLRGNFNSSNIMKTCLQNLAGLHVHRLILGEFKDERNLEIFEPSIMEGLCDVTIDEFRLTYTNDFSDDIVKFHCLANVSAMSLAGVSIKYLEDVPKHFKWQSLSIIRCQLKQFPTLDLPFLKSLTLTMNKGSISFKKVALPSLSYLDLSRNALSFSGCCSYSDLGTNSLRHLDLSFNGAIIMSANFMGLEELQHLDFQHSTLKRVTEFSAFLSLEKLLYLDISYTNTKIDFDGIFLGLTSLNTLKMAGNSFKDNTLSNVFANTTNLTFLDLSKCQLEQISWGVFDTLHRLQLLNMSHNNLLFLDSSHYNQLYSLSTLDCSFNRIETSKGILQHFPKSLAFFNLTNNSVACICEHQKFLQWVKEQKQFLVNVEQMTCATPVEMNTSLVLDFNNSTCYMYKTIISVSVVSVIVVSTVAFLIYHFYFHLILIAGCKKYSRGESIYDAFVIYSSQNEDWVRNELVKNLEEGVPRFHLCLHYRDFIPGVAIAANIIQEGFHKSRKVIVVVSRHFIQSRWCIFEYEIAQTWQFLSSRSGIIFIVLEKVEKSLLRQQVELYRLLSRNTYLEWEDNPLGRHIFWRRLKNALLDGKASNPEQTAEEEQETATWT

O[C@H](COc1ccc(Br)cc1)CN1CCN(Cc2cc3ccccc3[nH]2)CC1
inhibition (J774.A1 [1]): Active
IC50 (J774.A1 [2]): 3.28 µM
half-life [3]: 1.39 h
Activity (Mus musculus [4]): Active
Stability [5]: Stable
Stability [6]: Stable
Activity (Mus musculus [7]): Active
Activity (Mus musculus [8]): Active
Activity (Mus musculus [9]): Active
Activity [10]: Non-toxic
Activity [11]: Non-toxic
Activity (Peritoneal macrophage): inactive
Stability [12]: Stable
Activity [13]: Active
Cmax [14]: 0.32 µg/mL
inhibition [15]: Active
half-life [16]: 4.44 h
Activity (Mus musculus [17]): Active
Activity (Mus musculus [18]): Active
Activity (Mus musculus [19]): Active
inhibition (J774.A1 [20]): Active
Activity [21]: inactive
bioavailability [22]: 20.7%
Activity (Mus musculus [23]): Active
Activity (Mus musculus [24]): Active
concentration at 24 h [25]: 1.08 µg/mL
Activity (Mus musculus [26]): Active
Stability [27]: Stable
Activity (Mus musculus [28]): Active
Activity (Mus musculus [29]): Active
Activity (Mus musculus [30]): Active
IC50 (J774.A1 [31]): 0.24 µM
AUC(0-inf) [32]: 3.2 µg·h/mL
inhibition (J774.A1 [33]): Active
Activity [34]: Non-toxic

Source: ChEMBL document CHEMBL6078688, “Discovery of Novel MyD88 Inhibitor A5S to Alleviate Acute Lung Injury with Favorable Drug-like Properties” (J Med Chem, 2024)
